In patent publication US20170095440A1, “METHOD OF TREATING CANINE PANCREATITIS” (CK9, LLC, priority 2014, published 2017):
Several values for one entry are separate records, joined by “and”; a condition that tells them apart may be missing. Equal entries are not always repeated. Entries after “also recorded” stand apart in the source; their conditions may differ.

Tests used:
[1] = tested on: Beagle dogs; test: Multiple-dose tolerance study, oral capsule 3 times a day for 14 days; format: in vivo, dog
Experimental: The following parameters and end points were evaluated in the multiple-dose phase of this study: clinical signs, body weights, body weight changes, food consumption, electrocardiography, clinical pathology parameters (hematology, clinical chemistry, and urinalysis), and gross necropsy findings.
3 male and 3 female Beagle dogs were received from Marshall BioResources, North Rose, N.Y. The animals were examined and weighed on the day following receipt. The rising-dose phase animals were 6 months old and weighed 7.5 kg and 8.3 kg at initiation of dosing. The multiple-dose phase animals were 7 months old and weighed 7.4 kg and 7.6 kg at initiation of dosing.
For the multiple-dose phase, the test article was administered to the appropriate animals 3 times a day in an oral capsule from Days 1 to 14. The doses were administered 8 hours±30 minutes apart. The dose amount for each animal was based on the most recent body weight measurement. The first day of dosing was designated as Day 1.
Cage side observations were performed once daily, beginning during Week −1 and throughout the dosing period. During the dosing period, these observations were performed 1 to 3 hours post the first daily dose. The animals were removed from the cage and a detailed clinical observation was performed weekly, beginning during Week −1. Each animal was weighed on the day of randomization and Days 1, 4, 8, 11, and 15. A fasted weight was recorded on the day of necropsy. Food consumption was quantitatively measured for each animal daily, starting Week −1, throughout the dosing period, except for on the day of scheduled euthanasia.
Electrocardiogram (ECG) measurements were obtained from all animals using leads I, II, III, aVR, aVL, and aVF and a chart speed of 50 mm/second. The ECG measurements were obtained once on Day −1 (pretreatment) and Day 14 (approximately 3 hours post the first daily dose). Only lead II was evaluated by a board-certified veterinary cardiologist.
Blood was collected by venipuncture of the jugular vein. Urine was collected overnight by cage pan drainage. After collection, samples were transferred to the clinical pathology laboratory for processing. The animals were fasted overnight prior to scheduled clinical pathology sample collections, but had access to water ad libitum. Samples were collected according to Table 10.
Multiple-dose phase animals surviving until scheduled euthanasia were weighed, samples for evaluation of clinical pathology parameters were collected as specified above, and the animals were euthanized by sodium pentobarbital injection, followed by exsanguination. Animals were fasted (overnight) before their scheduled necropsy.
Multiple-dose phase animals were subjected to a complete necropsy examination, which included evaluation of the carcass and musculoskeletal system; all external surfaces and orifices; cranial cavity and external surfaces of the brain; and thoracic, abdominal, and pelvic cavities with their associated organs and tissues. Necropsy examinations were conducted under the supervision of a board-certified veterinary pathologist.

[2] = tested on: Han Wistar rats; test: Multiple-dose tolerance study, oral gavage 3 times a day for 7 days; format: in vivo, rat
Experimental: The following parameters and end points were evaluated in the multiple-dose phase of this study: clinical signs, body weights, body weight changes, food consumption, and gross necropsy findings.
A total of 18 male and 24 female Han Wistar rats were received from Charles River Laboratories, Raleigh, N.C. The animals were examined and weighed on the day following receipt. The rising-dose phase animals were 8 weeks old and weighed between 176 g and 255 g at initiation of dosing and the multiple-dose phase animals were 8 weeks old and weighed between 172 g and 259 g at initiation of dosing.
For the multiple-dose study, the test and control articles were administered to the appropriate animals 3 times a day by oral gavage from Days 1 to 7. The doses were administered 8 hours±30 minutes apart. The dose volume for each animal was based on the most recent body weight measurement. The doses were given using a syringe with attached gavage cannula. The first day of dosing was designated as Study Day 1.
Cage side observations were performed once daily, beginning during Week −1 and throughout the dosing phase. During the dosing period, these observations were performed 1 to 3 hours post the first daily dose.
The animals were removed from the cage and a detailed clinical observation was performed on the day of randomization and Days 1 and 8. Each animal was weighed on the day of randomization (Day −4) and Days 1 to 8. Food consumption was quantitatively measured for each animal weekly, starting Day −4, throughout the dosing phase.
Multiple-dose study animals were subjected to a complete necropsy examination, which included evaluation of the carcass and musculoskeletal system; all external surfaces and orifices; cranial cavity and external surfaces of the brain; and thoracic, abdominal, and pelvic cavities with their associated organs and tissues. Necropsy examinations were conducted under the supervision of a board-certified veterinary pathologist.
For the multiple-dose study, numerical data collected on scheduled occasions for the listed variables were analyzed as indicated according to sex and occasion. Descriptive statistics number, mean and standard deviation (or % CV or SE when deemed appropriate) were reported whenever possible. Inferential statistics were performed according to the matrix below when possible, but excluded semi-quantitative data, and any group with less than 3 observations.
Levene's test was used to assess the homogeneity of group variances parametric assumption at the 5% significance level. Datasets with at least 3 groups were compared using an overall one-way ANOVA F-test or Kruskal-Wallis test (if parametric assumptions were not met) at the 5% significance level. The above pairwise comparisons were conducted using a two-sided Dunnett's or Dunn's test, respectively, if the overall test was significant. Datasets with 2 groups were compared using a two-sided t-test or Wilcoxon Rank-Sum test, respectively. All significant pairwise comparisons were reported at the 0.1%, 1%, and 5% significance levels.

[3] = Day 15 vs pretest, 200 mg/kg/day, methanesulfonate, 200 mg/kg/day

## CN(C)C(=O)COC(=O)Cc1ccc(OC(=O)c2ccc(NC(=N)N)cc2)cc1 [Camostat Mesilate, N,N-dimethylcarbamoylmethyl-4-(4-guanidinobenzoyloxy)phenylacetate methanesulfonate]
[1]; 200 mg/kg/day (66.7 mg/kg/dose 3 times a day), 14 days, 1 male and 1 female, methanesulfonate
  Survival: No animals died; also recorded: All animals survived to scheduled euthanasia
[1]; 200 mg/kg/day, 14 days
  Body weight, overall conclusion: body weight loss
  Food consumption: no notable changes
[1]; Day 15, 200 mg/kg/day
  Gross necropsy findings: no gross necropsy findings
[1]; [3]
  Hematology parameters: no toxicologically meaningful changes; also recorded: no notable changes
  Urinalysis parameters: no toxicologically meaningful changes; also recorded: no notable changes
[1]; dogs, oral, 3 times per day
  High-dose level chosen from the tolerance study: 200 mg/kg/day
[1]; female, 200 mg/kg/day, 14 days
  Body weight change Days 1 to 15: −2.7%
  Clinical observations: clear ocular discharge and single occurrences of vomitus and mucoid feces
[1]; male and female, Day 15, 200 mg/kg/day, methanesulfonate, 200 mg/kg/day
  Clinical chemistry, potential test article-related changes: increased creatinine and γ-glutamyl transferase; also recorded: increases in creatinine and γ-glutamyl transferase
[1]; male, 200 mg/kg/day, 14 days
  Body weight change Days 1 to 15: −9.2%
  Clinical observations: thin appearance and a single occurrence of vomitus
[2]; 1300 mg/kg/day, Day 8, methanesulfonate
  Clinical observations: Most of the 1300 mg/kg/day animals were noted to be thin and 3/3 males and 2/3 females were noted to be thin
[2]; 1300 mg/kg/day, male
  Necropsy observation not considered test article related: small seminal vesicle was noted in one 1300 mg/kg/day male
[2]; 3 times per day for 7 days
  Overall conclusion of multiple dosing: body weight loss and decreased food consumption
[2]; 100, 550, 1300 mg/kg/day
  Gross necropsy findings: no toxicologically meaningful gross necropsy findings
[2]; 100, 550, 1300 mg/kg/day, 3 times a day, 7 days, euthanasia Day 8, methanesulfonate
  Survival: All animals survived to scheduled euthanasia; also recorded: No animals died
[2]; 100 or 550 mg/kg/day
  Mean body weights compared to controls: no statistically significant or toxicologically meaningful differences
[2]; 100 or 550 mg/kg/day, 7 days
  Clinical observations: no clinical observations noted
[2]; 100 or 550 mg/kg/day, Day 8
  Mean body weight, deviation from controls: ≤ 4.4%
[2]; Days 1 to 7, all dose groups
  Mean food consumption, statistical comparison with controls: no statistically significant differences
[2]; females, Day 8, 1300 mg/kg/day, statistically decreased Days 5 to 8
  Mean body weight lower than controls: 19%
[2]; females, 1300 mg/kg/day
  Body weight change Days 1 to 8: −13%
[2]; males, Day 8, 1300 mg/kg/day, statistically decreased Days 4 to 8
  Mean body weight lower than controls: 25%
[2]; males, 1300 mg/kg/day
  Body weight change Days 1 to 8: −15%
[2]; rats, oral, 3 times per day
  High-dose level chosen from the tolerance study: 1300 mg/kg/day
